Data as given in patent publication US10583137B2, “Triazole DAGLα inhibitors” (THE SCRIPPS RESEARCH INSTITUTE, priority 2015, dated 2020).

Assays:
[1] = biological target: DAGLα (hDAGLα-FLAG) (Homo sapiens (Human), UniProt Q9Y4D2); experiment: competitive ABPP, membrane proteome of transfected HEK293T cells; format: biochemical; settings: for IC50: read-out: DAGLα IC50; for inhibition at 0.4 µM: read-out: DAGLα % inh. 0.4 μM
Protocol: (§1) Compounds 19 and 20 were tested for in vitro inhibition of DAGLα and DAGLβ as measured by competitive activity-based protein profiling (ABPP) of […] using a HT-01 probe (targets DAGLα and DAGLβ) and a FP-Rh probe (targets serine hydrolases).
(§2) Briefly, membrane proteome (1 mg/ml, 20 μL) was prepared from HEK293T cells (transiently transfected with hDAGLα-FLAG or hDAGLα-S472A-FLAG, hDAGLβ-FLAG or hDAGLβ-S443A-FLAG) as described in Example 16. The proteome was incubated at room temperature with vehicle (DMSO) or compound in 0.5 μL DMSO for 30 min. The membrane proteome sample was subsequently treated for 30 min with HT-01 probe (1 μM) or FP-Rh probe (1 μM). The reactions were quenched with 10 μL 3× Laemmli sample buffer (final concentrations: 60 mM Tris-Cl pH 6.8, 2% (w/v) SDS, 10% (v/v) glycerol, 5% (v/v) (3-mercaptoethanol, 0.01% (v/v) bromophenol blue). The samples were directly loaded and resolved on SDS page gel (10% acrylamide). The gels were scanned using a ChemiDoc MP system (Cy3 settings, 605/50 filter).
(§3) The resolved proteins were transferred from the gels to a polyvinyldifluoride membrane for Western Blotting using a Trans-Blot® Turbo (BioRad). FLAG-tagged enzymes were stained using rabbit anti-FLAG as primary antibody, and goat-anti-rabbit HRP as secondary antibody. The blot was developed in the dark using a 10 mL luminal solution, 100 μL ECL enhancer and 3 μL H2O2. Chemiluminescence was visualized using a ChemiDoc XRS (BioRad).
(§4) The percentage of DAGL activity remaining in the assayed samples was determined by measuring the integrated optical intensity of the fluorescent protein bands of the Western Blot using image lab 4.1. The relative intensity was compared to the vehicle (DMSO) treated proteins, which were set to 100%. IC50 values were determined by plotting a log(inhibitor) vs. normalized response (Variable slope) dose-response curve generated using Prism software (GraphPad).

[2] = biological target: DAGLβ (hDAGLβ-FLAG) (Homo sapiens (Human), UniProt Q8NCG7); experiment: as above; format: biochemical; settings: for IC50: read-out: DAGLβ IC50; for inhibition at 0.4 µM: read-out: DAGLβ % inh. 0.4 μM
DAGLβ (hDAGLβ-FLAG), sequence (Q8NCG7 whole entry): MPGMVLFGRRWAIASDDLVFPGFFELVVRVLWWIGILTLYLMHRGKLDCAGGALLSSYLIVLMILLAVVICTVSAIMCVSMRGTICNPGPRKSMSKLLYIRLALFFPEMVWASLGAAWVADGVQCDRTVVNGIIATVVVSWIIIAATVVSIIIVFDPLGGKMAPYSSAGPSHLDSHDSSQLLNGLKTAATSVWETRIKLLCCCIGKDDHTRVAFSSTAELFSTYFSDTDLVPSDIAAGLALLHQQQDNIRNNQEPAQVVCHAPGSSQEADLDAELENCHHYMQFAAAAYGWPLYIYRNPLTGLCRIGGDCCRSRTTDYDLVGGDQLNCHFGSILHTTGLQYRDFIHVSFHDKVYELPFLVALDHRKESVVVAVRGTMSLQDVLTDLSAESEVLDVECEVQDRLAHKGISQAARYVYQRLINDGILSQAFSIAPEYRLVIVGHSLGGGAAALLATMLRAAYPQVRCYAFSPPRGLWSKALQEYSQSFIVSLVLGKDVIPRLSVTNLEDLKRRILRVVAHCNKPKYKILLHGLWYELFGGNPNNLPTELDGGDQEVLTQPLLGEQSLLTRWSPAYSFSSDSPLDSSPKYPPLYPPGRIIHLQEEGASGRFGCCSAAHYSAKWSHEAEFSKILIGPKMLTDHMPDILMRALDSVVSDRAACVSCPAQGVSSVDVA
Protocol: as §1, §2, §3, §4

DAGLα (hDAGLα-FLAG), sequence (Q9Y4D2 whole entry): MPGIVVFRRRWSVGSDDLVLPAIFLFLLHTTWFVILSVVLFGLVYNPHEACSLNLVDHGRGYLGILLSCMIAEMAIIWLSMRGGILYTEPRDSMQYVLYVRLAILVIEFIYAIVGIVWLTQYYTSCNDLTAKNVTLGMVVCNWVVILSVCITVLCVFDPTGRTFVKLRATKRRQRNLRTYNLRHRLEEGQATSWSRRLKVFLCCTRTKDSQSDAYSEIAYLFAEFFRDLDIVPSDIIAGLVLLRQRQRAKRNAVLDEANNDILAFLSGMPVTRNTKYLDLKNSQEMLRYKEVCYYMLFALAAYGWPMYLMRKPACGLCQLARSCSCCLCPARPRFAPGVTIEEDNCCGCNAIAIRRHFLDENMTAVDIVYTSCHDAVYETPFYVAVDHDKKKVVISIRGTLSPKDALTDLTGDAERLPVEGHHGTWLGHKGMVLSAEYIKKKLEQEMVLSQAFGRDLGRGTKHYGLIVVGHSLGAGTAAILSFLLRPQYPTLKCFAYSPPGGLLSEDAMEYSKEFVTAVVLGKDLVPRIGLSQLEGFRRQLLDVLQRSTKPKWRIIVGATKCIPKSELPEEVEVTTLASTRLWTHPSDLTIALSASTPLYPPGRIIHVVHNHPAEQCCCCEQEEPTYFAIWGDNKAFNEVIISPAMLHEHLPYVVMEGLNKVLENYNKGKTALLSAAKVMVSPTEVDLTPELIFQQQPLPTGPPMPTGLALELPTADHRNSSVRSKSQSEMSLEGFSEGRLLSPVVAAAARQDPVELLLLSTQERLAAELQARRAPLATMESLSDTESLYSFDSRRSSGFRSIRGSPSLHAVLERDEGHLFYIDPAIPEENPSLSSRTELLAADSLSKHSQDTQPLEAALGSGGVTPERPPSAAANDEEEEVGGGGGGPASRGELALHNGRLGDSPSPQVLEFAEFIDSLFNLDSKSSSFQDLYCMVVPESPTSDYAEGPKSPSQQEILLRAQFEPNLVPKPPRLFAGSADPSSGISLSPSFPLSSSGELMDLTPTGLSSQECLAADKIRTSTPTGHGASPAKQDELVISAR

Compound	IC50 [1] [nM]	IC50 [2] [nM]	inhibition at 0.4 µM [1] [%]	inhibition at 0.4 µM [2] [%]
COc1cc(Cl)cc(OC)c1-c1ccc(-c2cn(C(=O)N3CCCCC3Cc3ccncc3)nn2)cc1 (centres unmarked) [Compound 69, (4-(4′-chloro-2′,6′-dimethoxy-[1,1′-biphenyl]-4-yl)-1H-1,2,3-triazol-1-yl)(2-(pyridin-4-ylmethyl)piperidin-1-yl)methanone]	≤ 400	2000 to 10000	–	–
COc1cncc(OC)c1-c1ccc(-c2cnn(C(=O)N3CCCCC3Cc3ccccc3)n2)cc1 (centres unmarked) [Compound 70, (2-benzylpiperidin-1-yl)(4-(4-(3,5-dimethoxypyridin-4-yl)phenyl)-2H-1,2,3-triazol-2-yl)methanone]	2000 to 10000	> 10000	–	–
Cc1cncc(C)c1-c1ccc(-c2cn(C(=O)N3CCCCC3Cc3ccccc3)nn2)cc1 (centres unmarked) [Compound 71, (2-benzylpiperidin-1-yl)(4-(4-(3,5-dimethylpyridin-4-yl)phenyl)-1H-1,2,3-triazol-1-yl)methanone]	≤ 400	400 to 2000	–	–
O=C(N1CCCCC1Cc1ccccc1)n1cc(-c2ccc(-c3c(F)cncc3F)cc2)nn1 (centres unmarked) [Compound 72, (2-benzylpiperidin-1-yl)(4-(4-(3,5-difluoropyridin-4-yl)phenyl)-1H-1,2,3-triazol-1-yl)methanone]	400 to 2000	400 to 2000	–	–
O=C(N1CCCCC1Cc1ccccc1)n1cc(-c2ccc(-c3c(Cl)cncc3Cl)cc2)nn1 (centres unmarked) [Compound 73, (2-benzylpiperidin-1-yl)(4-(4-(3,5-dichloropyridin-4-yl)phenyl)-1H-1,2,3-triazol-1-yl)methanone]	≤ 400	≤ 400	–	–
COc1cc(OC)c(-c2ccc(-c3cn(C(=O)N4CCCCC4Cc4ccccc4)nn3)cn2)c(OC)c1 (centres unmarked) [Compound 74, (2-benzylpiperidin-1-yl)(4-(6-(2,4,6-trimethoxyphenyl)pyridin-3-yl)-1H-1,2,3-triazol-1-yl)methanone]	≤ 400	2000 to 10000	–	–
CN(C)C(=O)c1ccc(-c2ccc(-c3cn(C(=O)N4CCCCC4Cc4ccccc4)nn3)cc2)cc1 (centres unmarked) [Compound 75, 4′-(1-(2-benzylpiperidine-1-carbonyl)-1H-1,2,3-triazol-4-yl)-N,N-dimethyl-[1,1′-biphenyl]-4-carboxamide]	2000 to 10000	> 10000	–	–
CN(C)C(=O)c1cccc(-c2ccc(-c3cn(C(=O)N4CCCCC4Cc4ccccc4)nn3)cc2)c1 (centres unmarked) [Compound 76, 4′-(1-(2-benzylpiperidine-1-carbonyl)-1H-1,2,3-triazol-4-yl)-N,N-dimethyl-[1,1′-biphenyl]-3-carboxamide]	400 to 2000	> 10000	–	–
CN(C)C(=O)c1ccccc1-c1ccc(-c2cn(C(=O)N3CCCCC3Cc3ccccc3)nn2)cc1 (centres unmarked) [Compound 77, 4′-(1-(2-benzylpiperidine-1-carbonyl)-1H-1,2,3-triazol-4-yl)-N,N-dimethyl-[1,1′-biphenyl]-2-carboxamide]	≤ 400	400 to 2000	–	–
COc1cc(C(N)=O)cc(OC)c1-c1ccc(-c2cn(C(=O)N3CCCCC3Cc3ccccc3)nn2)cc1 (centres unmarked) [Compound 78, 4′-(1-(2-benzylpiperidine-1-carbonyl)-1H-1,2,3-triazol-4-yl)-2,6-dimethoxy-[1,1′-biphenyl]-4-carboxamide]	400 to 2000	> 10000	–	–
CNC(=O)c1cc(OC)c(-c2ccc(-c3cn(C(=O)N4CCCCC4Cc4ccccc4)nn3)cc2)c(OC)c1 (centres unmarked) [Compound 79, 4′-(1-(2-benzylpiperidine-1-carbonyl)-1H-1,2,3-triazol-4-yl)-2,6-dimethoxy-N-methyl-[1,1′-biphenyl]-4-carboxamide]	400 to 2000	> 10000	–	–
COc1cc(C(=O)N(C)C)cc(OC)c1-c1ccc(-c2cn(C(=O)N3CCCCC3Cc3ccccc3)nn2)cc1 (centres unmarked) [Compound 80, 4′-(1-(2-benzylpiperidine-1-carbonyl)-1H-1,2,3-triazol-4-yl)-2,6-dimethoxy-N,N-dimethyl-[1,1′-biphenyl]-4-carboxamide]	400 to 2000	> 10000	–	–
COc1cc(C(=O)N2CCCC2)cc(OC)c1-c1ccc(-c2cn(C(=O)N3CCCCC3Cc3ccccc3)nn2)cc1 (centres unmarked) [Compound 81, (2-benzylpiperidin-1-yl)(4-(2′,6′-dimethoxy-4′-(pyrrolidine-1-carbonyl)-[1,1′-biphenyl]-4-yl)-1H-1,2,3-triazol-1-yl)methanone]	400 to 2000	> 10000	–	–
COc1ncnc(OC)c1-c1ccc(-c2cn(C(=O)N3CCCCC3Cc3ccccc3)nn2)cc1 (centres unmarked) [Compound 82, (2-benzylpiperidin-1-yl)(4-(4-(4,6-dimethoxypyrimidin-5-yl)phenyl)-1H-1,2,3-triazol-1-yl)methanone]	≤ 400	≤ 400	–	–
COc1cnnc(OC)c1-c1ccc(-c2cn(C(=O)N3CCCCC3Cc3ccccc3)nn2)cc1 (centres unmarked) [Compound 83, (2-benzylpiperidin-1-yl)(4-(4-(3,5-dimethoxypyridazin-4-yl)phenyl)-1H-1,2,3-triazol-1-yl)methanone]	≤ 400	2000 to 10000	–	–
COc1cc(OC)c(-c2cn(C(=O)N3CCCCC3Cc3ccccc3)nn2)c(OC)c1 (centres unmarked) [Compound 84, (2-benzylpiperidin-1-yl)(4-(2,4,6-trimethoxyphenyl)-1H-1,2,3-triazol-1-yl)methanone]	> 10000	2000 to 10000	–	–
COc1cc(OC)c(-c2cnn(C(=O)N3CCCCC3Cc3ccccc3)n2)c(OC)c1 (centres unmarked) [Compound 85, (2-benzylpiperidin-1-yl)(4-(2,4,6-trimethoxyphenyl)-1H-1,2,3-triazol-2-yl)methanone]	> 10000	2000 to 10000	–	–
COc1ccc(-c2cn(C(=O)N3CCCCC3Cc3ccccc3)nn2)cc1 (centres unmarked) [Compound 87, (2-benzylpiperidin-1-yl)(4-(4-methoxyphenyl)-1H-1,2,3-triazol-1-yl)methanone]	≤ 400	≤ 400	–	–
N#Cc1ccc(-c2cn(C(=O)N3CCCCC3Cc3ccccc3)nn2)cc1 (centres unmarked) [Compound 88, 4-(1-(2-benzylpiperidine-1-carbonyl)-1H-1,2,3-triazol-4-yl)benzonitrile]	≤ 400	≤ 400	–	–
O=C(N1CCCCC1Cc1ccccc1)n1cc(-c2ccc([N+](=O)[O-])cc2)nn1 (centres unmarked) [Compound 89, (2-benzylpiperidin-1-yl)(4-(4-nitrophenyl)-1H-1,2,3-triazol-1-yl)methanone]	≤ 400	≤ 400	–	–
O=C(N1CCCCC1Cc1ccccc1)n1cc(-c2ccc(Br)nc2)nn1 (centres unmarked) [Compound 90, (2-benzylpiperidin-1-yl)(4-(6-bromopyridin-3-yl)-1H-1,2,3-triazol-1-yl)methanone]	≤ 400	≤ 400	–	–
CS(=O)(=O)OCc1ccc(-c2cn(C(=O)N3CCCCC3Cc3ccccc3)nn2)cc1 (centres unmarked) [Compound 91, 4-(1-(2-benzylpiperidine-1-carbonyl)-1H-1,2,3-triazol-4-yl)benzyl methanesulfonate]	≤ 400	2000 to 10000	–	–
CN(C)Cc1ccc(-c2cn(C(=O)N3CCCCC3Cc3ccccc3)nn2)cc1 (centres unmarked) [Compound 92, (2-benzylpiperidin-1-yl)(4-(4-((dimethylamino)methyl)phenyl)-1H-1,2,3-triazol-1-yl)methanone]	2000 to 10000	2000 to 10000	–	–
O=C(N1CCCCC1Cc1ccccc1)n1cc(-c2ccc(CN3CCCC3)cc2)nn1 (centres unmarked) [Compound 93, (2-benzylpiperidin-1-yl)(4-(4-(pyrrolidin-1-ylmethyl)phenyl)-1H-1,2,3-triazol-1-yl)methanone]	2000 to 10000	> 10000	–	–
O=C(N1CCCCC1Cc1ccccc1)n1cc(-c2ccc(CN3CCOCC3)cc2)nn1 (centres unmarked) [Compound 94, (2-benzylpiperidin-1-yl)(4-(4-(morpholinomethyl)phenyl)-1H-1,2,3-triazol-1-yl)methanone]	≤ 400	400 to 2000	–	–
COC(=O)N1CCN(C(=O)n2cc(-c3ccc(OC(F)(F)F)cc3)nn2)C(Cc2ccccc2)C1 (centres unmarked) [Compound 95, methyl 3-benzyl-4-(4-(4-(trifluoromethoxy)phenyl)-1H-1,2,3-triazole-1-carbonyl)piperazine-1-carboxylate]	–	–	≥ 75	25 to 50
CC(C)OC(=O)N1CCN(C(=O)n2cc(-c3ccc(OC(F)(F)F)cc3)nn2)C(Cc2ccccc2)C1 (centres unmarked) [Compound 96, isopropyl 3-benzyl-4-(4-(4-(trifluoromethoxy)phenyl)-1H-1,2,3-triazole-1-carbonyl)piperazine-1-carboxylate]	–	–	≥ 75	50 to 75
CC(C)OC(=O)N1CCN(C(=O)n2ncc(-c3ccc(OC(F)(F)F)cc3)n2)C(Cc2ccccc2)C1 (centres unmarked) [Compound 97, isopropyl 3-benzyl-4-(4-(4-(trifluoromethoxy)phenyl)-2H-1,2,3-triazole-2-carbonyl)piperazine-1-carboxylate]	–	–	25 to 50	0 to 25
